ChEMBL document CHEMBL3639122, “Heteroarylcarboxylic acid ester derivative” (2015)

Key:
Serine protease 1 = Serine protease 1 (Homo sapiens, UniProt P07477); test: Inhibition Assay: Using a 96 well plate (#3915, Costar), a test compound (25 μL) was mixed with 20 μM fluorescence enzyme substrate (Boc-Phe-Ser-Arg-AMC, 50 μL) mixed with 200 mM Tris-HCl buffer (pH 8.0), and human trypsin (Sigma, 25 μL) was added. Using a fluorescence plate reader fmax (Molecular Devices, Inc.), the reaction rate was measured from the time-course changes at excitation wavelength 355 nm and fluorescence wavelength 460 nm.
Enteropeptidase = Enteropeptidase (Homo sapiens, UniProt P98073); test: Inhibition Assay: Using a 96 well plate (#3915, Costar), a test compound (25 μL), 400 mM Tris-HCl buffer (pH 8.0, 25 μL) and 0.5 mg/mL fluorescence enzyme substrate (Gly-Asp-Asp-Asp-Asp-Lys-β-Naphtylamide, 25 μL) were mixed, and recombinant human enteropeptidase (R&D Systems, Inc., 25 μL) was added. Using a fluorescence plate reader fmax (Molecular Devices, Inc.), the reaction rate was measured from the time-course changes at excitation wavelength 320 nm and fluorescence wavelength 405 nm.
Chain of Enteropeptidase (P98073 2-784 limits assumed): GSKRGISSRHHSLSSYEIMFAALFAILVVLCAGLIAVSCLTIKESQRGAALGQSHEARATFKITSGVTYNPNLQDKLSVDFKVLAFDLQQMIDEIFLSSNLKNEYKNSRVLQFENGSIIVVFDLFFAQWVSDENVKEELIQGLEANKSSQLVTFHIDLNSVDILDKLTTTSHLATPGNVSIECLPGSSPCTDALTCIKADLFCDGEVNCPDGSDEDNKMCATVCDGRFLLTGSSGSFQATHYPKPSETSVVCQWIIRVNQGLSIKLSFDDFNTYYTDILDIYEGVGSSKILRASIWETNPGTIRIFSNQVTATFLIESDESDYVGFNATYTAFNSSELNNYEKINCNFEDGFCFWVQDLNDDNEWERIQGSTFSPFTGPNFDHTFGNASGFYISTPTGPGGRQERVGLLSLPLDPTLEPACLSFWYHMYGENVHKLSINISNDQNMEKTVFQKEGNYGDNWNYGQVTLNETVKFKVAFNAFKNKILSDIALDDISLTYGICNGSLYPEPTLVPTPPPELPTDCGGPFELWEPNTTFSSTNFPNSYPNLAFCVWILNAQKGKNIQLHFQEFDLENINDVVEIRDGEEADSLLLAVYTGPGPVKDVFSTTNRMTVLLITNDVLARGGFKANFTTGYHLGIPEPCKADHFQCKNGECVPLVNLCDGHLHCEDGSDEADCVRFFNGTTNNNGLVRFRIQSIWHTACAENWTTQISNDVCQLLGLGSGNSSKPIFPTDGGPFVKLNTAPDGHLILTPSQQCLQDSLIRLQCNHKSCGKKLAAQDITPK
Chain of Enteropeptidase (P98073 785-1019 limits assumed): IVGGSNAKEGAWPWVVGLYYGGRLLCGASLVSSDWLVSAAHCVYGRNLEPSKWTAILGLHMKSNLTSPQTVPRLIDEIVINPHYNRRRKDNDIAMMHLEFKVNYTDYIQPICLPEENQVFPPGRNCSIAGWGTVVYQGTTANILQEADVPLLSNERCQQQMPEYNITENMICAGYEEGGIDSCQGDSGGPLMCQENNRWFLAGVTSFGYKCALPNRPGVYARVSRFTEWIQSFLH

Chain of Serine protease 1 (P07477 whole entry): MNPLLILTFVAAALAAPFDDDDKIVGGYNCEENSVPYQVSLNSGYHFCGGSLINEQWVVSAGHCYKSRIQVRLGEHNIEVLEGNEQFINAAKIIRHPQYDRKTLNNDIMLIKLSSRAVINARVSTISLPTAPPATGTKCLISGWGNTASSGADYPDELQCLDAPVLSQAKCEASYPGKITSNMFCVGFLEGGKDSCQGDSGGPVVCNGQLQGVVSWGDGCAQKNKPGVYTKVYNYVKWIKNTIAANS

## CCC(CC)(Cc1ccc(C(=O)Oc2ccc(C(=N)N)cc2F)s1)C(=O)N[C@@H](CCC(=O)O)C(=O)O
Serine protease 1
  Ki: 2.01 nM
Enteropeptidase
  Ki: 0.27 nM
